Like-named read-outs stand apart in the source and are kept apart here.
What was measured:
Type in all cases: in vivo
male mice (NMRI) = experiment: Acute toxicity in the 7 day test on mice; conditions: intragastral (i.g.), 7 days observation
Method: (§1) The acute toxicity of the thiazolidones according to the present invention was investigated on male mice (NMRI) with a body weight of 21-26 g. Before commencement of the experiment, the animals fasted for 24 hours but with water available ad libitum. There were 4 mice in each dosage group. The dosage was increased by a factor of 2. The test compounds were suspended in a 1% tragacanth mucilage and administered intragastrally by, means of a stomach probe. The amount of liquid administered was 0.2 ml./10 g. body weight. […] Silymarin was used as standard substance. The LD50 values determined are set out in the following Table I: […]

[1] = Acute toxicity in the 7 day test on mice; conditions: mouse, in vivo, po; male NMRI mice, intragastral (i.g.), 7 days observation
Method: as §1

[2] = system: mice with liver damage caused by α-amanitine; experiment: Anti-hepatotoxic action: survival rate of mice with liver damage caused by α-amanitine; conditions: for effect on survival rate of α-amanitine liver damaged mice (in words): in comparison with untreated control animals
Method: As a further animal experimental test model for the testing of the anti-hepatotoxic actions of pharmaceuticals, use is made of the liver damage in mice produced by α-amanitine.
Since it is extremely difficult to obtain α-amanitine in sufficient amounts, only a small amount of α-amanitine was available for these experiments so that the experiments could only be carried out to a very limited extent.
The influence of Compounds Nos. 1 and 4 was determined on the survival rate of mice with liver damage brought about by α-amanitine. As standard substance, there was again used silymarin which was tested by us in the dosage found to be effective by Hahn et al. (Arzneimittel Forschung, 18, 697/1968) as an anti-hepatotoxic in the same experimental procedure.
Each experimental group consisted of 25 animals. The test substances were administered daily over a period of 6 days, administration being intragastrally in a tragacanth mucilage (0.2 ml./10 g. body weight), using a stomach probe.
The intraperitoneal administration of, in each case, 0.3 mg./kg. α-amanitine took place in all experimental groups on the second day of the experiment. The dosage of α-amanitine was so chosen that the mortality rate of the untreated animals remained below 100%. The survival rate of the animals of all experimental groups was monitored daily for a total period of 14 days. The statistical comparison of the survival rate took place according to the Vierfelder […]. The comparative values obtained are set out in the following Table III: […]

[3] = 2 × 250 mg/kg/day i.g., untreated 52%, 14 days

Row | SMILES | LD50 (male mice (NMRI)) | LD50 at 168 h [1] [mg/kg] | survival rate of α-amanitine liver damaged animals, treated [2] [%] | survival rate of α-amanitine liver damaged animals, treated [2, 3] [%] | effect on survival rate of α-amanitine liver damaged mice (in words) [2]
1 | CCOC(=O)C=C1SC(CC)(c2ccccc2)C(=O)N1C (stereo not drawn) [Compound 3, ethyl 3-methyl-5-ethyl-5-phenyl-4-oxo-Δ^2,^α -thiazolidine-acetate] | about 1600 mg./kg. | ~1600 | – | – | –
2 | CCOC(=O)C=C1SC(c2ccccc2)(N2CCCCC2)C(=O)N1CC (stereo not drawn) [Compound 4, Ethyl 3-ethyl-5-phenyl-5-N-piperidino-4-oxo-Δ^2,^α -thiazolidine-acetate] | – | > 1600 | 100 | 100 | statistically highly significant
3 | CCOC(=O)C=C1SC(c2ccccc2)(N(C)CCO)C(=O)N1CC (stereo not drawn) [Compound 5, Ethyl 3-ethyl-5-phenyl-5-(methyl-β-hydroxyethylamino)-4-oxo-Δ^2,^α -thiazolidine-acetate] | – | > 1600 | – | – | –
4 | CCOC(=O)C=C1SC(c2ccccc2)(N2CCCC2)C(=O)N1C (stereo not drawn) [Compound 2, ethyl 3-methyl-5-phenyl-5-N-pyrrolidino-4-oxo-Δ^2,^α -thiazolidine-acetate] | – | > 1600 | – | – | –
5 | CCOC(=O)C=C1SC(c2ccccc2)(N2CCCCC2)C(=O)N1C (stereo not drawn) [Compound 1, ethyl 3-methyl-5-phenyl-5-N-piperidino-4-oxo-Δ^2,^α -thiazolidine-acetate] | – | > 1600 | – | 92 | clearly increases the survival rate
